{"source": "patent US12440471B2", "about": "“Compositions and methods for the treatment of bronchopulmonary dysplasia (BPD) and BPD-associated pulmonary hypertension” (AyuVis Research, Inc., priority 2021, dated 2025)", "format_in_all_cases": "in vivo", "key": {"[1]": {"system": "hyperoxia-exposed BPD mouse model", "assay": "BPD mouse model: immunofluorescence (Ki67, PCNA, vWF) and TUNEL staining of lung", "description": "AVR-48 restored lung morphology and improved alveolar cellular physiology. After assessment of the safety profile of the AVR-48, and confirmation of the ideal dose to be used, the inventors then performed studies to evaluate the therapeutic effect on the lung in the experimental BPD mouse model, as previously described (Bhandari, Choo-Wing et al. 2008, Leary, Das et al. 2019, Das, Acharya et al 2020, Das, Curstedt et al 2020). BPD is characterized by enlarged simplified alveoli with large air sacs, thickened septum, and thin alveolar epithelium (FIG. 2A) accompanied by overall decrease in alveolar cell proliferation, decreased/dysregulated angiogenesis and increased cell death. All these features were restored after injection of 2 doses of AVR-48, IP (10 mg/kg) on days P2 and P4. […] The total inflammatory cells present in the BALF (FIG. 3A) and the total protein content (FIG. 3B)—both increase in BPD, was decreased after treatment with AVR-48. […] To assess cell specificity, the inventors focused on Type I and Type II alveolar epithelial cells (AECs), as they are most relevant to the process of alveolarization, as described in the manuscript. The inventors utilized the receptor for advanced glycation end-products (RAGE) as the preferred marker for Type I AECs and surfactant protein (SP)-C for the Type II AECs. Due to Ki67 and SP-C being raised in the same species, we used proliferating cell nuclear antigen (PCNA) expression—a well-established marker of cell proliferation because cells remain a longer time in the G1/S phase when proliferating—as a preferred marker for proliferating cells. […] There were few cells which were double positive for PCNA as well as RAGE in the RA and RA+AVR-48 groups (FIG. 4C).\nHistology, immunohistochemistry and immunofluorescence. Both the RA control and BPD mice were anesthetized (using an overdose of a cocktail of xylazine-ketamine) and lung and heart tissues were harvested after perfusion and fixed overnight in 4% paraformaldehyde. Fixed tissues were then washed in fresh PBS, dehydrated using 70% ethanol, cleared, and embedded in paraffin to be sectioned and stained with hematoxylin and eosin (H&E) for lung morphometry or immunohistochemistry/immunofluorescence as previously described (Leary, Das et al. 2019, Das, Achaiya et al. 2020, Das, Curstedt et al. 2020). Immunofluorescence staining was done for Ki67 (Abcam, 1:10) and Von Wilebrand Factor (vWF-DAKO, 1:100) on lung paraffin sections following the protocol as described earlier (Leary, Das et al. 2019) while TUNEL staining was done following the manufacturer's instructions (Roche).\nFor quantification of cell proliferation and cell death, the entire lung section was divided into 3 areas, and the total number of Ki67+ve and TUNEL+ve cells nuclei were counted manually which was normalized with the total number of nuclei to give a percentage of positive cells. For vWF quantification, total number of closed vessels were counted per high power field area in one lung section. A minimum of 3 areas were chosen, and 3-7 animals were used for staining and counting."}, "[2]": {"system": "pre-term lamb BPD model", "assay": "Pre-term lamb BPD model: lung histopathology and radial alveolar count", "description": "Detailed methods have been published previously by Reyburn et al. and Null et al (Reyburn, Li et al. 2008, Null, Alvord et al. 2014), relevant portions incorporated herein by reference. All protocols have been adhered to APS/NIH guidelines for animal research and have been approved by the Institution Animal Care and Use Committees (IACUC) at the University of Utah. Lung injury in PT neonates, including PT lambs, that are mechanically ventilated (MV) is the classical picture of alveolar simplification. Alveolar simplification is evident as distended terminal respiratory units that have few secondary septa and thick, cellular mesenchyme.\nThe micrographs show terminal respiratory units (TRU) of the lung at the same magnification. […] Radial alveolar count is the number of tissue intersections across a terminal respiratory unit, from the center of the respiratory bronchiole to the perimeter of the terminal respiratory unit."}, "[3]": {"assay": "PK study in rat pups by SC or IV (plasma, BALF)", "settings": "for accumulation ratio using AUC(0-t): BALF, SC"}}, "data": [{"smiles": "CC(=O)N[C@@H]1C(Oc2ccc([N+](=O)[O-])cc2)OC(CO)C(O)C1O", "note": "(some centres unmarked) [AVR-48]", "values": [{"measurement": "cell proliferation (Ki67 immunostaining)", "setting": "[1]; 10 mg/kg IP P2 and P4, vs BPD", "value": "revival in cell proliferation"}, {"measurement": "RAGE+ve cells co-localization with PCNA (Type I AECs)", "setting": "[1]; BPD or BPD+AVR-48 groups", "value": "did not co-localize with PCNA"}, {"measurement": "cells co-localizing SP-C and PCNA (proliferating Type II AECs)", "setting": "[1]; BPD vs RA, RA+AVR-48, BPD+AVR-48", "value": "less in the BPD group as compared to RA, RA+AVR-48 and BPD+AVR-48 groups"}, {"measurement": "blood vessels (vWF immunostaining)", "setting": "[1]; vs BPD group", "value": "showed improvement"}, {"measurement": "cell death (TUNEL staining, cleaved caspase 3 immunoblotting)", "setting": "[1]; vs BPD group", "value": "decrease in cell death"}, {"measurement": "radial alveolar count / alveoli formation", "setting": "[2]; 3.0 mg/Kg, preliminary results", "value": "promotes alveoli formation"}, {"measurement": "alveolar simplification (lung histopathology)", "setting": "[2]; vs vehicle treated PT lamb", "value": "significantly improved"}, {"measurement": "accumulation ratio using AUC(0-t)", "setting": "[3]; 100 mg/kg/day", "value": 1.90}, {"measurement": "accumulation ratio using AUC(0-t)", "setting": "[3]; 150 mg/kg/day", "value": 0.880}, {"measurement": "AUC(0-t)", "setting": "[3]; Sprague Dawley Crl:CD, rat, in vivo, sc, AUC(0-t)", "value": 2610, "unit": "ng·h/mL"}, {"measurement": "AUC(0-t) dose proportionality", "setting": "[3]; rat, in vivo, sc, 75 mg/kg", "value": "increased in a dose-proportional manner"}]}]}
